For one assay, the target named is hERG channel (Homo sapiens, UniProt Q12809). As to the kind of experiment: hERG electrophysiology, automated whole-cell patch clamp (Patchliner) in CHO-K1 cells stably expressing hERG.
Another assay has as its target T1, Kv1.3 potassium channel (Homo sapiens, UniProt P22001).
T1 construct: expressed in transfected cells
Briefly: Kv1.3 potassium channel blocker activity, automated whole-cell patch clamp (Patchliner) in CHO-K1 cells stably expressing Kv1.3. The format is cell-based. How it is done: Example 82. Evaluation of Kv1.3 potassium channel blocker activities
This assay is used to evaluate the disclosed compounds' activities as Kv1.3 potassium channel blockers.
CHO-K1 cells stably expressing Kv1.3 were grown in DMEM containing 10% heat-inactivated FBS, 1 mM sodium pyruvate, 2 mM L-glutamine, and G418 (500 μg/ml).
All compounds were dissolved in DMSO at 30 mM.
The currents were evoked by applying 100 ms depolarizing pulses from −90 mV (holding potential) to +40 mV were applied with 0.1 Hz frequency. […] 10-second breaks were used between pulse trains (see Table A below).
Data were sampled at 10 kHz without filtering. Passive leak currents were subtracted online using a P/4 procedure (HEKA Elektronik Dr. Schulze GmbH). […] Total compound incubation time before the next pulse train was not longer than 10 seconds. Peak current inhibition was observed during compound equilibration.

The mark [1] stands for this setting: CHO-K1 cells stably expressing Kv1.3, patch clamp, current inhibition, read-out: Kv1.3 IC50.

Where two headings read alike, the source gives them in different places.

Chain of hERG channel (Q12809 whole entry): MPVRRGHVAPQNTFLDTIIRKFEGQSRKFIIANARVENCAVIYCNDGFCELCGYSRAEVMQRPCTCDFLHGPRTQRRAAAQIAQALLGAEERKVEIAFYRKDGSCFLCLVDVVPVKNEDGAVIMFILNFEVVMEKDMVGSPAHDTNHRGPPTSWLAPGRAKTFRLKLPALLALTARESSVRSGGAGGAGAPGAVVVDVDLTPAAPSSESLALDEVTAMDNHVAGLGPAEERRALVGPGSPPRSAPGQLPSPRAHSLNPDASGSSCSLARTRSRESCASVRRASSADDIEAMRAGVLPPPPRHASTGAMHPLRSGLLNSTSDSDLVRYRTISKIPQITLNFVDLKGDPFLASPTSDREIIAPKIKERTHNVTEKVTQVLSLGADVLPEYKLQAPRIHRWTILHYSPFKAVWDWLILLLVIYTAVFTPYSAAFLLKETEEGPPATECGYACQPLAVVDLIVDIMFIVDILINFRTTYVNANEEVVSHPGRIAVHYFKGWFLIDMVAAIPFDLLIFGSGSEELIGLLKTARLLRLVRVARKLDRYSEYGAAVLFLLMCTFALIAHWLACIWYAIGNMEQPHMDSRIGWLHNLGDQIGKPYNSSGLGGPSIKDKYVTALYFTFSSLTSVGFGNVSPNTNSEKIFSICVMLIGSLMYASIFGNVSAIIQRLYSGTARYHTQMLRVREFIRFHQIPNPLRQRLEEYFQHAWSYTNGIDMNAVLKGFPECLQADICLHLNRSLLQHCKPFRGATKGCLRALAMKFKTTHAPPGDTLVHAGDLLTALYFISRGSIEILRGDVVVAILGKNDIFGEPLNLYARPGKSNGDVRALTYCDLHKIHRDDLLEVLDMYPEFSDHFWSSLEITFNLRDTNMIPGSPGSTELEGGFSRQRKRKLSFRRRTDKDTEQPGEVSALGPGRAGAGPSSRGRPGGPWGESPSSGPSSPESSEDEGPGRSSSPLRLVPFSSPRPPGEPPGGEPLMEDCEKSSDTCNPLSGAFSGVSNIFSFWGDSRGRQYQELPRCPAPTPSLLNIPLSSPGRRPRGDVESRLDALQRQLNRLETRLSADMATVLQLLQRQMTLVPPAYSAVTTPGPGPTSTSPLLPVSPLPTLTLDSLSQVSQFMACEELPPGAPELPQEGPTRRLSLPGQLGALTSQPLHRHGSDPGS
T1 sequence (P22001 whole entry): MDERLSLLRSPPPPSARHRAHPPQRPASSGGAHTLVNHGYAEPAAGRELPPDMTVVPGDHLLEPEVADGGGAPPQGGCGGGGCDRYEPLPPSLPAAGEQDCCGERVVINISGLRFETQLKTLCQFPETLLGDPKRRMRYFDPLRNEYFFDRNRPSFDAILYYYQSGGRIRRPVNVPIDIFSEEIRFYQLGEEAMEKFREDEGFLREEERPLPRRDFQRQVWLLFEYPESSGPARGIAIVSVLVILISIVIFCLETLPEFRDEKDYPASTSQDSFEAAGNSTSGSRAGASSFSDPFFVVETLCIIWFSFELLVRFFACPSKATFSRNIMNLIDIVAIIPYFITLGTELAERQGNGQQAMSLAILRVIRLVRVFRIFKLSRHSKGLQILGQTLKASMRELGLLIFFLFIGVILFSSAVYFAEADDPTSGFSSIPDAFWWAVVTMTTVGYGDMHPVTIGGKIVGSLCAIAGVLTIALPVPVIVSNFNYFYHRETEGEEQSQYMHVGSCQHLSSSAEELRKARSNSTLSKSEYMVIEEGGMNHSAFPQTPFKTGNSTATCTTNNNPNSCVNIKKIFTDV
Description for hERG channel: Evaluation of hERG Activities
This assay is used to evaluate the disclosed compounds's inhibition activities against the hERG channel.
CHO-K1 cells stably expressing hERG were grown in Ham's F-12 Medium with glutamine containing 10% heat-inactivated FBS, 1% penicillin/streptomycin, hygromycin (100 μg/ml) and G418 (100 μg/ml). Cells were grown in culture flasks at 37° C. in a 5% CO2-humidified incubator.
The cells were bathed in an extracellular solution containing 140 mM NaCl, 4 mM KCl, 2 mM CaCl2), 1 mM MgCl2, 5 mM Glucose, 10 mM HEPES; pH adjusted to 7.4 with NaOH; 295-305 mOsm. The internal solution contained 50 mM KCl, 10 mM NaCl, 60 mM KF, 20 mM EGTA, 10 mM HEPES; pH adjusted to 7.2 with KOH; 285 mOsm. All compounds were dissolved in DMSO at 30 mM. Compound stock solutions were freshly diluted with external solution to concentrations of 30 nM, 100 nM, 300 nM, 1 μM, 3 μM, 10 μM, 30 μM and 100 μM. The highest content of DMSO (0.3%) was present in 100 μM.
The voltage protocol (see Table B) was designed to simulate voltage changes during a cardiac action potential with a 300 ms depolarization to +20 mV (analogous to the plateau phase of the cardiac action potential), a repolarization for 300 ms to −50 mV (inducing a tail current) and a final step to the holding potential of −80 mV. The pulse frequency was 0.3 Hz. Control (compound-free) and compound pulse trains for each compound concentration applied contained 70 pulses.
Whole-cell current recordings and compound application were enabled by means of an automated patch clamp platform Patchliner (Nanion). EPC 10 patch clamp amplifier (HEKA) along with Patchmaster software (HEKA Elektronik Dr. Schulze GmbH) was used for data acquisition. Data were sampled at 10 kHz without filtering. Increasing compound concentrations were applied consecutively to the same cell without washouts in between.
AUC and PEAK values were obtained with Patchmaster (HEKA Elektronik Dr. Schulze GmbH). To determine IC50 the last single pulse in the pulse train corresponding to a given compound concentration was used. Obtained AUC and PEAK values in the presence of compound were normalized to control values in the absence of compound. Using Origin (OridinLab), IC50 was derived from data fit to Hill equation: Icompound/control=(100−A)/(1+([compound]/IC50)nH)+A, where IC50 is the concentration at which current inhibition is half-maximal, [compound] is the applied compound concentration, A is the fraction of current that is not blocked and nH is the Hill coefficient.

Consider `NCC1CN(c2cc(Cl)c(Cl)cc2O)C1` [Compound 31, 2-(3-(aminomethyl)aze-tidin-1-yl)-4,5-dichlorophenol], for which the half-inhibitory concentration (IC50) at hERG channel was < 30 µM; at Kv1.3 potassium channel (setting [1]) it was < 1 µM.

In the case of `CC(=O)NC[C@@H]1CC(c2c(O)ccc(Cl)c2Cl)CCN1` (single isomer, unassigned) [Compound 89], the IC50 was > 30 µM at hERG channel and < 1 µM on Kv1.3 potassium channel (setting [1]). For the compound `Oc1cc(Cl)c(Cl)c(Cl)c1C1CCNCC1` [Compound 44, 3,4,5-trichloro-2-(piperidin-4-yl)phenol], the half-maximal inhibitory concentration (IC50) was < 30 µM at hERG channel and < 1 µM at Kv1.3 potassium channel (setting [1]).

For `Oc1cc(Cl)c(Cl)cc1C1CCCNC1` (stereo not shown) [Compound 16, 4,5-dichloro-2-(piperidin-3-yl)phenol], the half-maximal inhibitory concentration (IC50) against hERG channel is < 30 µM; at Kv1.3 potassium channel (setting [1]) it was < 1 µM. With `Oc1cc(Cl)c(Cl)cc1C1CCCCNC1` (stereo not shown) [Compound 40, 2-(azepan-3-yl)-4,5-dichlorophenol], the IC50 on hERG channel is < 30 µM; on Kv1.3 potassium channel (setting [1]), < 10 µM. In the case of `O=C(C[C@H]1CC(c2c(O)ccc(Cl)c2Cl)CCN1)N1CCOCC1` (single isomer, unassigned) [Compound 67], the IC50 against hERG channel is > 30 µM; at Kv1.3 potassium channel (setting [1]), < 1 µM. For `NC1CCN(c2cc(Cl)c(Cl)cc2O)CC1` [Compound 8, 2-(4-aminopiperidin-1-yl)-4,5-dichlorophenol] the same measures were < 30 µM and < 1 µM. For `Oc1cc(Cl)c(Cl)cc1C1CCNC(C2CC2)C1` (stereo not shown) [Compound 43, 4,5-dichloro-2-(2-cyclopropylpiperidin-4-yl)phenol] the same measures were < 30 µM and < 1 µM. For `O=C(CO)N1CCC(c2c(O)cc(Cl)c(Cl)c2Cl)CC1` [Compound 93, 2-hydroxy-1-[4-(2,3,4-trichloro-6-hydroxyphenyl)piperidin-1-yl]ethan-1-one] the same measures were < 30 µM and < 1 µM. `Oc1cc(Cl)c(Cl)cc1N1CCNCC1` [Compound 5, 4,5-dichloro-2-(piperazin-1-yl)phenol]: the 50% inhibitory concentration (IC50) was < 30 µM at hERG channel and < 10 µM on Kv1.3 potassium channel (setting [1]).

`NC(=O)C1CCCN(c2c(O)ccc(Cl)c2Cl)C1` (stereo not shown) [Compound 88, 1-(2,3-dichloro-6-hydroxyphenyl)piperidine-3-carboxamide]: the half-maximal inhibitory concentration (IC50) at Kv1.3 potassium channel (setting [1]) was < 10 µM.

For `Oc1cc(Cl)c(Cl)cc1[C@H]1C[C@H]2CC[C@@H](C1)N2` (single isomer, unassigned; isomer 2) [Compound 11, 2-[8-azabicyclo[3.2.1]octan-3-yl]-4,5-dichlorophenol isomer 2], the IC50 against Kv1.3 potassium channel is < 10 µM.

Take `N[C@@H]1CNCC[C@H]1c1cc(Cl)c(Cl)cc1O` (relative stereo) [Compound 49, (3R,4R)-rel-2-(3-aminopiperidin-4-yl)-4,5-dichlorophenol]: the half-maximal inhibitory concentration (IC50) on Kv1.3 potassium channel (setting [1]) is < 10 µM. On the same count and under the same terms, the same measure for `Oc1cc(C(F)F)c(Cl)cc1C1CCNCC1` [Compound 41, 4-chloro-5-(difluoromethyl)-2-(piperidin-4-yl)phenol]: < 10 µM; for `NC(=O)[C@H]1CN(c2c(O)cc(Cl)c(Cl)c2Cl)CCN1` [Compound 96, (2R)-4-(2,3,4-trichloro-6-hydroxyphenyl)piperazine-2-carboxamide]: < 1 µM; for `O=C(C1CC(c2c(O)ccc(Cl)c2Cl)CCN1)N1CCNCC1` (stereo not shown) [Compound 75, 3,4-dichloro-2-[2-(piperazine-1-carbonyl)piperidin-4-yl]phenol]: < 10 µM. Same read-out and setting: under `CN(C)C(=O)[C@H]1C[C@H](c2c(O)ccc(Cl)c2Cl)CCN1` (relative stereo) [Compound 82, (2R,4R)-rel-4-(2,3-dichloro-6-hydroxyphenyl)-N,N-dimethylpiperidine-2-carboxamide] stands < 10 µM. On the same count and under the same terms, the same measure for `Oc1cccc(Cl)c1C1CCNCC1` [Compound 66, 3-chloro-2-(piperidin-4-yl)phenol]: < 10 µM; for `Oc1ccc(Br)c(Cl)c1C1CCNCC1` [Compound 81, 4-bromo-3-chloro-2-(piperidin-4-yl)phenol]: < 1 µM; for `COC(=O)[C@@H]1CNC[C@H]1c1cc(Cl)c(Cl)cc1O` (relative stereo) [Compound 53, (3R,4S)-rel-methyl 4-(4,5-dichloro-2-hydroxyphenyl)pyrrolidine-3-carboxylate]: < 10 µM. With `O=C(O)C1CC(c2c(O)ccc(Cl)c2Cl)CCN1` (stereo not shown) [Compound 84, 4-(2,3-dichloro-6-hydroxyphenyl)piperidine-2-carboxylic acid], the concentration for half-maximal inhibition (IC50) at Kv1.3 potassium channel (setting [1]) was < 10 µM.

Consider `Cc1ccc(O)c(C2CCNCC2)c1Cl` [Compound 71, 3-chloro-4-methyl-2-(piperidin-4-yl)phenol], for which, at Kv1.3 potassium channel (setting [1]), the IC50 is < 30 µM. Regarding `OC[C@H]1C[C@@H](c2cc(Cl)c(Cl)cc2O)CCN1` (single isomer, unassigned) [Compound 34], the IC50 on Kv1.3 potassium channel (setting [1]) is < 10 µM. Same read-out and setting: under `OC[C@@H]1C[C@H](c2cc(Cl)c(Cl)cc2O)CCN1` (single isomer, unassigned) [Compound 35] stands < 10 µM; under `NC(=O)[C@H]1CNCC[C@H]1c1cc(Cl)c(Cl)cc1O` (single isomer, unassigned) [Compound 58], < 1 µM. Still for that read-out and setting: under `Nc1nnc([C@H]2C[C@@H](c3c(O)ccc(Cl)c3Cl)CCN2)o1` (relative stereo) [Compound 103, 2-((2R,4S)-rel-2-(5-amino-1,3,4-oxadiazol-2-yl)piperidin-4-yl)-3,4-dichlorophenol] stands < 10 µM; under `Oc1cc(Cl)c(Cl)c(Cl)c1C1=CCNCC1` [Compound 46, 3,4,5-trichloro-2-(1,2,3,6-tetrahydropyridin-4-yl)phenol], < 10 µM. `CC1(C(N)=O)CC(c2c(O)ccc(Cl)c2Cl)CCN1` (stereo not shown) [Compound 83, 4-(2,3-dichloro-6-hydroxyphenyl)-2-methylpiperidine-2-carboxamide]: at Kv1.3 potassium channel (setting [1]), the concentration for half-maximal inhibition (IC50) is < 10 µM. On the same count and under the same terms, under `NC(=O)[C@@H]1CNCC[C@@H]1c1cc(Cl)c(Cl)cc1O` (single isomer, unassigned) [Compound 56] stands < 10 µM; under `Oc1cc(Cl)c(Cl)cc1C1CCNCC1n1ccnn1` (stereo not shown) [Compound 62, 4,5-dichloro-2-[3-(1H-1,2,3-triazol-1-yl)piperidin-4-yl]phenol], < 10 µM. Same read-out and setting: under `Oc1cc(C(F)(F)F)c(Cl)cc1C1CCNCC1` [Compound 29, 4-chloro-2-(piperidin-4-yl)-5-(trifluoromethyl)phenol] stands < 10 µM. Still for that read-out and setting: the same measure for `O=C(NC1CNC1)[C@H]1CN[C@H](c2c(O)ccc(Cl)c2Cl)C1` (single isomer, unassigned) [Compound 124]: < 1 µM; for `NC1(CO)CCN(c2cc(Cl)c(Cl)cc2O)CC1` [Compound 33, 2-[4-amino-4-(hydroxymethyl)piperidin-1-yl]-4,5-dichlorophenol]: < 10 µM; for `OCC1(c2cc(Cl)c(Cl)cc2O)CCNCC1` [Compound 26, 4,5-dichloro-2-[4-(hydroxymethyl)piperidin-4-yl]phenol]: < 10 µM.

Consider `Oc1cc(Cl)c(Cl)cc1[C@@H]1CCNC[C@H]1O` (relative stereo) [Compound 7, (3R,4R)-rel-4-(4,5-dichloro-2-hydroxyphenyl)piperidin-3-ol], for which, at Kv1.3 potassium channel (setting [1]), the IC50 is < 10 µM.

As to `NC(=O)[C@@H]1CN(c2c(O)ccc(Cl)c2Cl)CCN1` [Compound 92], the IC50 on Kv1.3 potassium channel (setting [1]) was < 10 µM. For the compound `NC[C@H]1CNCC[C@H]1c1cc(Cl)c(Cl)cc1O` (relative stereo) [Compound 47, (3R,4S)-rel-2-[3-(aminomethyl)piperidin-4-yl]-4,5-dichlorophenol], the IC50 at Kv1.3 potassium channel (setting [1]) was < 30 µM.

In the case of `O=C([C@H]1C[C@H](c2c(O)ccc(Cl)c2Cl)CCN1)N1CCOCC1` (relative stereo) [Compound 76, (2R,4R)-rel-3,4-dichloro-2-[2-(morpholine-4-carbonyl)piperidin-4-yl]phenol], the IC50 on Kv1.3 potassium channel (setting [1]) was < 10 µM. `NC(=O)[C@H]1CNCC[C@@H]1c1cc(Cl)c(Cl)cc1O` (relative stereo) [Compound 50, (3R,4S)-rel-4-(4,5-dichloro-2-hydroxyphenyl)piperidine-3-carboxamide]: the half-maximal inhibitory concentration (IC50) on Kv1.3 potassium channel (setting [1]) was < 10 µM.

Turning to `O=C(NC1CNC1)[C@@H]1CC[C@@H](c2c(O)ccc(Cl)c2Cl)N1` (single isomer, unassigned) [Compound 120], the IC50 on Kv1.3 potassium channel (setting [1]) is < 10 µM.

`O=C(NC1CNC1)[C@@H]1CN[C@H](c2c(O)ccc(Cl)c2Cl)C1` (single isomer, unassigned) [Compound 123]: on Kv1.3 potassium channel (setting [1]), the IC50 was < 10 µM.

On to `NC[C@@H]1CNCC[C@H]1c1cc(Cl)c(Cl)cc1O` (relative stereo) [Compound 48, (3R,4R)-rel-2-[3-(aminomethyl)piperidin-4-yl]-4,5-dichlorophenol], for which, on Kv1.3 potassium channel (setting [1]), the 50% inhibitory concentration (IC50) was < 10 µM. On the same count and under the same terms, the same measure for `Oc1ccc(C2CC2)c(Cl)c1C1CCNCC1` [Compound 69, 3-chloro-4-cyclopropyl-2-(piperidin-4-yl)phenol]: < 30 µM. Turning to `NC(=O)C1CNC[C@H]1c1cc(Cl)c(Cl)cc1O` (stereo in doubt) [Compound 64, (3R,4R)-rel-4-(4,5-dichloro-2-hydroxyphenyl)pyrrolidine-3-carboxamide], the IC50 at Kv1.3 potassium channel (setting [1]) is < 10 µM. As for `N[C@H]1CNCC[C@H]1c1cc(Cl)c(Cl)cc1O` (relative stereo) [Compound 51, (3R,4S)-rel-2-(3-aminopiperidin-4-yl)-4,5-dichlorophenol], the IC50 on Kv1.3 potassium channel (setting [1]) was < 10 µM.

As usually defined, the IC50 is the concentration needed to halve the response being measured.

The values are drawn from patent publication US20230026611A1, “ARYL HETEROCYCLIC COMPOUNDS AS Kv1.3 POTASSIUM SHAKER CHANNEL BLOCKERS” (D. E. Shaw Research, LLC, priority 2019, published 2023).
